# Marks after values point to notes of the source that are not given here.
# Experiments:
# [1] = test system: breast cancer cells MCF-7; details: cited from earlier work
# [2] = test system: MCF-7 human cells culture (breast adenocarcinoma); assay: Proliferative activity of MCF-7 cells; type: cell-based
# Method: The study analysis was carried out on an passaged MCF-7 human cells culture culture (breast adenocarcinoma). Normal human dermal fibroblasts (HDF) of early passages were used as a negative control.
# The cells were cultivated in Carrel vials in DMEM/F12 medium (Biolot) with 1.0% of antibiotic-free fetal bovine embryonic serum (Biolot) added in the 5% CO2 atmosphere, at 37° C.
# The cells were seeded on Carrel vials at 50×10^4 cells per flask. To study the proliferative activity of the cells under conditions of sulfatase inhibition, 24 hours after seeding the culture medium […], and then these tumor cell lines were incubated for various periods of time (24 to 72 hrs). The inhibitor was dissolved in DMSO. […] To exclude the cytotoxic effect of DMSO, a control sample comprising DMSO without sulfatase inhibitor was prepared.
# To exclude nonspecific detrimental effects of the compounds, normal human skin fibroblasts were used. Then the cells were detached with the versene-trypsin solution (Biolot), plated onto Carrel vials containing a fresh complete culture medium. The cells were counted when untreated control cells reached the maximum cell density per unit of surface area of a culture flask (monolayer), and their number was set as 100%. The proliferative activity of all of the studied cell cultures exposed to sulfatase inhibitors was determined in triplicate.
# [3] = test system: breast tumours in FBV/N female mice, transgenic for HER-2/neu; assay: Antitumour activity on breast tumours of HER-2/neu transgenic mice; type: in vivo; details: for Relative change of the average total volume of tumours to that of Day −1 (M): Tamoxifen-1, 4.0 mg/kg daily i.g.; for Average total volume of tumours in mice (M) / Average volume of tumors existing at the beginning of the experiment (M) / TGI (average total tumour volume) / TGI (average tumor volume): Tamoxifen-1 group; for Average total volume of tumours in mice (M) / Average volume of tumors existing at the beginning of the experiment (M): 4.0 mg/kg daily i.g.; for TGI (average total tumour volume) / TGI (average tumor volume): 4.0 mg/kg
# Method: The study was carried out on female FVB mice transgenic for HER-2/neu of the conventional category, the strain being obtained from the mouse bank Charles River Laboratories (Italy).
# Duration of the administration course was 27-28 days.
# The control groups were given the olive oil (placebo).
# The macroscopically detectable tumor nodes were measured in the animals once per week during the weighing process.
# [4] = Body weight and tolerability during the antitumour study; details: for Average body weight of mice (M): 4.0 mg/kg daily i.g.; for Body weight: Tamoxifen-2, 4 mg/kg, end of observation
# Method: The study medicament was administered i.g. using a metal atraumatic gavage (with the procedure corresponds to the oral route of administration in clinical settings). […] Ex tempore solutions of the medicament for administration were prepared in olive oil (refined olive oil supplemented with unrefined extra virgin olive oil available under Global Village “Clasico” trademark, lot L:183351116, expiry date 26.04.2020, BAIEO, Spain). The administered volume was 0.1 ml per 10 g of a mouse body weight (0.2 ml of a ready-to-use formulation for a mouse of 20 g). The medicament administration was started 24 hours after the randomization. Duration of the administration course was 27-28 days.
# This dose corresponds to a human daily dose of 20 mg/kg.
# The evaluation criteria included the clinical observation data, animals body weights, time of death (if applicable), tumor growth over time, pathomorphological examination data (verification of a neoplasm during autopsy, assessment of toxic effects by macroscopic presentation of changes in the internal organs).
# The animals body weights were recorded before the first administration of the medicaments and then twice per week using a verified high-speed electronic laboratory balance Ohaus Scout Pro (USA) with a maximum load of 2000 g and a measurement pitch of 0.1 g.
# uterine body = assay: Hormonal effects on the uterine body (uterine weight); type: in vivo, mice; details: Tamoxifen-2, 4 mg/kg, end of observation
# Method: The hormonal effects of the medicament on the uterine body was analyzed by comparing the uterine weight without uterine horns at the end of the observation period (Table 13).
# [5] = in vivo; cited from earlier work
smiles,measurement,setting,value
"C[C@H]1Oc2cc(OS(N)(=O)=O)ccc2C2=C1C1=CCC[C@H](OS(N)(=O)=O)[C@@]1(C)CC2 [3,17αβ-disulfamoyloxy-7β-methyl-D-homo-6-oxa-estra-1,3,5(10), 8,14-pentaen]",growth of breast cancer cells MCF-7,[1],inhibitor of the growth
"CC/C(=C(\c1ccccc1)c1ccc(OCCN(C)C)cc1)c1ccccc1 [Tamoxifen, reference compound]","inhibition of proliferation of MCF-7 tumour cells, compared with steroid of formula 2",[2],inhibited to the same extent
same,Relative change of the average total volume of tumours to that of Day −1 (M),[3]; Day 6,40%
same,Relative change of the average total volume of tumours to that of Day −1 (M),[3]; Day 13,80** %
same,Relative change of the average total volume of tumours to that of Day −1 (M),[3]; Day −1,0%
same,Average total volume of tumours in mice (M),[3]; Day 6,1 0.76 cm^3
same,Average volume of tumors existing at the beginning of the experiment (M),[3]; Day 6,0.26 cm^3
same,Average total volume of tumours in mice (M),[3]; Day 13,0.88 cm^3
same,Average volume of tumors existing at the beginning of the experiment (M),[3]; Day 13,0.3 cm^3
same,Average volume of tumors existing at the beginning of the experiment (M),[3]; Day 20,0.47 cm^3
same,Average volume of tumors existing at the beginning of the experiment (M),[3]; Day 27,0.58 cm^3
same,Average total volume of tumours in mice (M),[3]; Day −1,0.66 cm^3
same,Average volume of tumors existing at the beginning of the experiment (M),[3]; Day −1,0.23 cm^3
same,TGI (average total tumour volume),"[3]; vs Control-2, Day 6",−162%
same,TGI (average tumor volume),"[3]; vs Control-2, Day 6",−100%
same,TGI (average total tumour volume),"[3]; vs Control-2, Day 13",−35%
same,TGI (average tumor volume),"[3]; vs Control-2, Day 13",−7%
same,TGI (average total tumour volume),"[3]; vs Control-2, Day 20",−39%
same,TGI (average tumor volume),"[3]; vs Control-2, Day 20",−9%
same,TGI (average total tumour volume),"[3]; vs Control-2, Day 27",−21%
same,TGI (average tumor volume),"[3]; vs Control-2, Day 27 (end of observation)",5%
same,TGI (average total tumour volume),"[3]; vs Control-2, Day −1",−247%
same,TGI (average tumor volume),"[3]; vs Control-2, Day −1",−188%
same,relative change in the total volume of tumours versus Control-3 group,[3]; Tamoxifen-2 group,exceeded the value across the Control-3 group
same,average volume of tumours exceeded the control group by,"[3]; Tamoxifen-2 group, end of the experiment",31%
same,Average body weight of mice (M),"[4]; Tamoxifen-1 group, Day 1",27.7 g
same,Average body weight of mice (M),"[4]; Tamoxifen-1 group, Day 6",26.5 g
same,Average body weight of mice (M),"[4]; Tamoxifen-1 group, Day 13",27.3 g
same,Average body weight of mice (M),"[4]; Tamoxifen-1 group, Day 20",27.5 g
same,Average body weight of mice (M),"[4]; Tamoxifen-1 group, Day 27",28.2 g
same,Body weight,[4]; All mice,34.2 ± 1.4 g
same,Body weight,[4]; estrous cycle phase E,34.2 ± 1.4 g
same,Average body weight of mice (M),"[4]; Tamoxifen-2 group, Day 1",31.0 g
same,Average body weight of mice (M),"[4]; Tamoxifen-2 group, Day 7",32.0 g
same,Average body weight of mice (M),"[4]; Tamoxifen-2 group, Day 14",32.9 g
same,Average body weight of mice (M),"[4]; Tamoxifen-2 group, Day 21",32.8 g
same,Average body weight of mice (M),"[4]; Tamoxifen-2 group, Day 28",34.2 g
same,Uterine weight,uterine body; All mice,28 ± 1 MI
same,Uterine weight,uterine body; estrous cycle phase E,28 ± 1 MI
C[C@]12CC[C@@H]3c4ccc(OS(N)(=O)=O)cc4CC[C@H]3[C@@H]1CCC2=O [estrone sulfamate],uterotropic activity,[5],strong uterotropic activity
